Some test systems named below: SN12C; NCI-H460; HOP-62; SK-MEL-2; MOLT-4; A549; SR; 786-0; HCT-116; SW-620; UACC-62; CAKI-1; SK-OV-3; M14; DLD-1; MDA-N; PC-3; DU-145; T47D; MDA-MB-231.
What all share (assay): inhibition of tumour cell growth, NCI panel, 48 h

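Briefly, cells in 96-well plates were exposed to five compound concentrations for 48 h, and endpoints were estimated by linear interpolation. GI50 marks 50% less growth.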 The source made the active and inactive calls. Cut-off read from the data, not from the text of the source: active = GI50 up to about 1.1 µM and inactive = higher. Where a SMILES comes first, the peptide text is derived from it. [ ]: non-standard residue; d: D form. 2Nal = N[CH](Cc1ccc2ccccc2c1)C(=O)O Where only a bound is given, the exact number is not on record here.

Take `CCOC(=O)C(=O)CC1=Nc2ccccc2SC(c2cccc(C)c2)C1` (centres undefined): the GI50 in the assay with SN12C was 17.1 µM (inactive); in the assay with NCI-H460, 19.5 µM (inactive); in the assay with HOP-62 it was 23.9 µM (inactive); in the assay with SK-MEL-2 it was 16.3 µM (inactive); in the assay with MOLT-4 it was 17.3 µM (inactive); in the assay on A549 it was 21.2 µM (inactive). In addition, the GI50 was 22.2 µM (inactive) in the assay on SR; 17.9 µM (inactive) in the assay on 786-0; 14.7 µM (inactive) in the assay on HCT-116; 25.6 µM (inactive) with SW-620; 16.9 µM (inactive) with UACC-62; 21.9 µM (inactive) in the assay on CAKI-1. Besides, the values for the GI50 in the assay on SK-OV-3, with M14 and in the assay with DLD-1 were > 10 µM (inactive), 18.6 µM (inactive) and 17.8 µM (inactive), respectively.
With `N#CC(C(=O)CCCC(=O)Nc1ccc(Cl)cc1Cl)c1ccccc1` (centres undefined), the GI50 in the assay with SN12C, in the assay on NCI-H460, in the assay with HOP-62, in the assay with SK-MEL-2, with MOLT-4 and in the assay on A549 was > 100 µM (inactive) throughout. The GI50 with SR, in the assay with 786-0, with HCT-116, in the assay on SW-620, in the assay on UACC-62 and in the assay on CAKI-1 was > 100 µM (inactive) in each case. In addition, the GI50 in the assay with SK-OV-3, with M14 and with DLD-1 was > 100 µM (inactive) each time.
As to `CCOC(=O)C(Cc1ccccc1)NC(=O)c1ccc(/N=N/N(C)C)cc1` (centres undefined), the GI50 in the assay on SN12C, in the assay with NCI-H460, in the assay with HOP-62, in the assay on SK-MEL-2, with MOLT-4 and in the assay on A549 was > 100 µM (inactive) throughout. Moreover, the GI50 in the assay with SR, in the assay on 786-0, with HCT-116, in the assay on SW-620, with UACC-62 and with CAKI-1 was > 100 µM (inactive) each time. Also, the GI50 in the assay with SK-OV-3, in the assay with M14 and in the assay on DLD-1 was > 100 µM (inactive) throughout.
For the compound `COC(=O)C1=CCC2c3[nH]c4ccccc4c3CCN2C1` (centres undefined), the GI50 with SN12C, in the assay on NCI-H460, in the assay with HOP-62, in the assay on SK-MEL-2, with MOLT-4 and with A549 was > 354 µM (inactive) throughout. In addition, the GI50 in the assay with SR is > 354 µM (inactive); in the assay on 786-0, > 354 µM (inactive); in the assay on HCT-116, 242 µM (inactive); in the assay with SW-620, > 354 µM (inactive); in the assay with UACC-62, > 354 µM (inactive); with CAKI-1, > 354 µM (inactive). Further, the GI50 in the assay on SK-OV-3 and in the assay with DLD-1 was > 354 µM (inactive) each time.
`C/C=C(/CCCCNCCCC)[Si](C)(C)C`: the GI50 in the assay on SN12C was 16.2 µM (inactive); in the assay with NCI-H460, 15.6 µM (inactive); with SK-MEL-2, 18.7 µM (inactive); with MOLT-4, 11.4 µM (inactive); with A549, 15.3 µM (inactive); in the assay on SR it was 13.4 µM (inactive). The GI50 is 12.5 µM (inactive) with 786-0; 12.4 µM (inactive) in the assay on HCT-116; 16.6 µM (inactive) in the assay with SW-620; 17.6 µM (inactive) in the assay on UACC-62; 18 µM (inactive) with SK-OV-3; 14.4 µM (inactive) with M14. Moreover, the GI50 with DLD-1 is 14.6 µM (inactive).
Take `Nc1nc2c(N)cc(C(F)(F)F)cc2nc1-c1ccccc1`: the GI50 was > 100 µM (inactive) in the assay with SN12C; > 100 µM (inactive) with NCI-H460; > 100 µM (inactive) with HOP-62; > 100 µM (inactive) with SK-MEL-2; 38.4 µM (inactive) in the assay on MOLT-4; > 100 µM (inactive) with A549. Moreover, the GI50 in the assay with SR, in the assay on 786-0, with HCT-116, with SW-620, in the assay on UACC-62 and with CAKI-1 was > 100 µM (inactive) in each case. The GI50 in the assay on SK-OV-3, in the assay on M14 and in the assay on DLD-1 was > 100 µM (inactive) each time.
Turning to `COc1ccc2nccc(NCCCN3CCN(CCCNc4ccnc5ccc(OC)cc45)CC3)c2c1`, the GI50 in the assay on SN12C was 0.177 µM (active); in the assay on NCI-H460 it was 0.296 µM (active); in the assay with HOP-62, 0.966 µM (active); with SK-MEL-2, 1.25 µM (inactive); in the assay with MDA-N, 0.0881 µM (active); with PC-3, 0.44 µM (active). Besides, the GI50 in the assay with MOLT-4 is 0.107 µM (active); in the assay with A549 it was 0.296 µM (active); in the assay with SR, 0.505 µM (active); in the assay with 786-0, 0.582 µM (active); in the assay with HCT-116 it was 0.221 µM (active); with SW-620, 0.11 µM (active). Further, the GI50 with UACC-62 was 0.918 µM (active); with CAKI-1, 3.69 µM (inactive); in the assay on DU-145, 0.508 µM (active); with SK-OV-3, 1.53 µM (inactive); in the assay with T47D, 0.887 µM (active); in the assay on M14, 1.08 µM (active). The GI50 with DLD-1 is 0.843 µM (active); in the assay with MDA-MB-231, 0.357 µM (active).
Take `CCOC(OC1=C(C#N)CCC1)C(C)[Se]c1ccccc1` (centres undefined): the GI50 in the assay on SN12C is 14.7 µM (inactive); with NCI-H460, 36.4 µM (inactive); in the assay with HOP-62, > 100 µM (inactive); with SK-MEL-2, 16.8 µM (inactive); with MOLT-4, 18 µM (inactive); with A549, 67.8 µM (inactive). The GI50 in the assay on SR is 11.6 µM (inactive); with 786-0, 14.4 µM (inactive); in the assay on HCT-116 it was 18.8 µM (inactive); with UACC-62, 18.5 µM (inactive); in the assay on CAKI-1, 59.7 µM (inactive); in the assay with SK-OV-3, > 100 µM (inactive). For the same compound, the GI50 is 16.1 µM (inactive) in the assay on M14 and 30.5 µM (inactive) with DLD-1.
As to `Cc1ccc(-n2c(=S)[nH]c3ccc(Br)cc3c2=O)cc1`, the GI50 in the assay with SN12C, in the assay with NCI-H460, in the assay with HOP-62, with SK-MEL-2, in the assay with MOLT-4 and with A549 was > 100 µM (inactive) in each case. The GI50 in the assay on SR is > 100 µM (inactive); in the assay with 786-0 it was > 100 µM (inactive); with HCT-116, > 100 µM (inactive); in the assay with SW-620, > 100 µM (inactive); with DLD-1 it was 67.9 µM (inactive).
For `O=C(CSc1nc(-c2ccccc2)c(-c2ccccc2)[nH]1)NNC(=S)Nc1ccccc1`, the GI50 was > 100 µM (inactive) in the assay with SN12C; > 100 µM (inactive) in the assay on NCI-H460; > 100 µM (inactive) in the assay with HOP-62; > 100 µM (inactive) with SK-MEL-2; 33.7 µM (inactive) in the assay with MOLT-4; > 100 µM (inactive) in the assay with A549. Moreover, the GI50 was 57.5 µM (inactive) in the assay on SR; > 100 µM (inactive) with 786-0; 97.1 µM (inactive) in the assay on HCT-116; > 100 µM (inactive) with SW-620; 0.277 µM (active) with UACC-62; 81.7 µM (inactive) in the assay with CAKI-1. The GI50 is > 100 µM (inactive) with SK-OV-3, 94.6 µM (inactive) with M14 and 96.4 µM (inactive) with DLD-1.
Consider `CC(NC(=O)C(N)Cc1ccccc1)C(=O)NC(Cc1ccc(O)cc1)C(=O)NC(Cc1c[nH]c2ccccc12)C(=O)NC(CCCCN)C(=O)NC(C(=O)NC(C)C(=O)NC(Cc1ccc2ccccc2c1)C(N)=O)C(C)C` (centres undefined) (H-FAYWKVA[2Nal]-NH2; configuration not given here), for which the GI50 in the assay on SN12C, with NCI-H460, in the assay with HOP-62, in the assay with SK-MEL-2, in the assay with PC-3 and with A549 was > 12.5 µM (inactive) throughout. In addition, the GI50 in the assay with 786-0, in the assay on HCT-116, with SW-620, in the assay with UACC-62, in the assay on CAKI-1 and in the assay on DU-145 was > 12.5 µM (inactive) each time. For the same compound, the GI50 is > 12.5 µM (inactive) with SK-OV-3; > 12.5 µM (inactive) in the assay with T47D; > 12.5 µM (inactive) in the assay with M14; 31.8 µM (inactive) in the assay on DLD-1; > 12.5 µM (inactive) in the assay with MDA-MB-231.

Source of the values: ChEMBL document CHEMBL1201862, “PubChem BioAssay data set” (2004).
